20 molecules from patent publication US9518052B2, “Pyrazolopyridines and pyrazolopyrimidines” (Pfizer Inc., priority 2014, dated 2016) can be followed below.

Counter-ions that a name gives are not always drawn.

Holding throughout (format): biochemical
Settings in all cases: Caliper assay at 1 mM ATP

In one assay the target is TYK2 (Homo sapiens (Human), UniProt P29597). Briefly: JAK Caliper Enzyme Assay at 1 mM ATP (TYK2).
The next assay addresses JAK1 (Homo sapiens (Human), UniProt P23458). As to the kind of experiment: JAK Caliper Enzyme Assay at 1 mM ATP (JAK1).
The next assay concerns the target JAK2 (Homo sapiens (Human), UniProt O60674). As to the kind of experiment: JAK Caliper Enzyme Assay at 1 mM ATP (JAK2).
A further assay deals with JAK3 (Homo sapiens (Human), UniProt P52333). As to the kind of experiment: JAK Caliper Enzyme Assay at 1 mM ATP (JAK3).
JAK3, sequence (P52333 whole entry, species assumed): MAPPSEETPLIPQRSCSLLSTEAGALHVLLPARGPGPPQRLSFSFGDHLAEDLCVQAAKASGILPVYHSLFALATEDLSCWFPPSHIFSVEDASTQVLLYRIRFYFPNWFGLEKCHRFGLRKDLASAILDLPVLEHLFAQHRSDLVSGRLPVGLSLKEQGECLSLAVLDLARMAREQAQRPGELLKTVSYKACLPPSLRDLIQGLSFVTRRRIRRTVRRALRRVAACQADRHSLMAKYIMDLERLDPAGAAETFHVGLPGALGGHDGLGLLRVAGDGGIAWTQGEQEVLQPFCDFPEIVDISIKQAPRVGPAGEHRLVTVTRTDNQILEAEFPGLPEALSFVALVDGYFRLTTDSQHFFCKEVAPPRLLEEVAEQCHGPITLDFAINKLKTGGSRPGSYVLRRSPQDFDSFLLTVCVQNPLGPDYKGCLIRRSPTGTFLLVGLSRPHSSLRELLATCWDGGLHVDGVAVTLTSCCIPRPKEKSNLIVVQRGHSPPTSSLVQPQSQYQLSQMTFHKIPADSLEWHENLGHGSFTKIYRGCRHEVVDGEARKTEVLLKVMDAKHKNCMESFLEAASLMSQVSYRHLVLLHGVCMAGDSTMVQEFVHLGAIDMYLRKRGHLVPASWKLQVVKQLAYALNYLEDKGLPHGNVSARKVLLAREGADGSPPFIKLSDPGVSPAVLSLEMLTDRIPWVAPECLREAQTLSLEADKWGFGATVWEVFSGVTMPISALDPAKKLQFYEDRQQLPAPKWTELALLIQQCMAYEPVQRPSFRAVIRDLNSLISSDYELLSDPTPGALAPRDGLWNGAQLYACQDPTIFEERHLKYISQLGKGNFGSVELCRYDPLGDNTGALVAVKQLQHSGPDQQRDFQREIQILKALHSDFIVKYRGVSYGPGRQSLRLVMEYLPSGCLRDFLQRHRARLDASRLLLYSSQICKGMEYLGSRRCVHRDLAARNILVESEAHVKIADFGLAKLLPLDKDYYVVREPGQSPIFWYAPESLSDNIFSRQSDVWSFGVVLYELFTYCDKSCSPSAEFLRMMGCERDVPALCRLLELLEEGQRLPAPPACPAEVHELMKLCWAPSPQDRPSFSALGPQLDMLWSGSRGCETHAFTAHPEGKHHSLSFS

One may read the IC50 as the concentration needed to halve the response being measured. Low readings indicate greater potency, high ones weaker potency.

JAK2, sequence (O60674 whole entry, species assumed): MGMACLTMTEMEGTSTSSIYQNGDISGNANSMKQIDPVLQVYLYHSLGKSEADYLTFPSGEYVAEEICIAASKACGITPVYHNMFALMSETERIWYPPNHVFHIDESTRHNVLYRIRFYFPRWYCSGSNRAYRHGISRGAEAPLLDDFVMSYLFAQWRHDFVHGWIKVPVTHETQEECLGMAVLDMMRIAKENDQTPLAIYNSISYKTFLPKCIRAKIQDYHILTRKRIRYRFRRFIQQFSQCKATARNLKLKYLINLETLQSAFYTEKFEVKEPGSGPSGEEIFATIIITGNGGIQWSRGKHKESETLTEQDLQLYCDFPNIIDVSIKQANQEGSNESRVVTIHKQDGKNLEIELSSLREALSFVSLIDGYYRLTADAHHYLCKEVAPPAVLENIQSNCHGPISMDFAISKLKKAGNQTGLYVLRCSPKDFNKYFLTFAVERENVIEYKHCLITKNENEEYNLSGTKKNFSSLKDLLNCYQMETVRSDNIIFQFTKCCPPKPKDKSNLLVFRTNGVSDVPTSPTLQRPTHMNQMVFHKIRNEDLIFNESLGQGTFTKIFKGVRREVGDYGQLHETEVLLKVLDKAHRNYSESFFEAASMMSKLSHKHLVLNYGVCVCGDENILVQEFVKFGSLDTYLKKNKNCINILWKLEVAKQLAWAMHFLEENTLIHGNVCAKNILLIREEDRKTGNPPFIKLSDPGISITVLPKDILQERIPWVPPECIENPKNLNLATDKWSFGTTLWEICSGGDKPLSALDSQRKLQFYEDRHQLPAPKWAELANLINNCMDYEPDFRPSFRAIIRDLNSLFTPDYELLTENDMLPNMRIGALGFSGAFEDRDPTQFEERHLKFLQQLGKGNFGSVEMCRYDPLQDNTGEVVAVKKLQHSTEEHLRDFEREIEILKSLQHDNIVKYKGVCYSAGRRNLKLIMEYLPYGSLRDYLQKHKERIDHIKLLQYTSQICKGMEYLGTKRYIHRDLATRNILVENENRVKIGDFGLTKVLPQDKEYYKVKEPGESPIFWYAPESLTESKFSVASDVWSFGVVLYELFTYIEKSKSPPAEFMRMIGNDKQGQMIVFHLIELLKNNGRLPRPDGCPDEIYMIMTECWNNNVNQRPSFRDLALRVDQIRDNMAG
JAK1, sequence (P23458 whole entry, species assumed): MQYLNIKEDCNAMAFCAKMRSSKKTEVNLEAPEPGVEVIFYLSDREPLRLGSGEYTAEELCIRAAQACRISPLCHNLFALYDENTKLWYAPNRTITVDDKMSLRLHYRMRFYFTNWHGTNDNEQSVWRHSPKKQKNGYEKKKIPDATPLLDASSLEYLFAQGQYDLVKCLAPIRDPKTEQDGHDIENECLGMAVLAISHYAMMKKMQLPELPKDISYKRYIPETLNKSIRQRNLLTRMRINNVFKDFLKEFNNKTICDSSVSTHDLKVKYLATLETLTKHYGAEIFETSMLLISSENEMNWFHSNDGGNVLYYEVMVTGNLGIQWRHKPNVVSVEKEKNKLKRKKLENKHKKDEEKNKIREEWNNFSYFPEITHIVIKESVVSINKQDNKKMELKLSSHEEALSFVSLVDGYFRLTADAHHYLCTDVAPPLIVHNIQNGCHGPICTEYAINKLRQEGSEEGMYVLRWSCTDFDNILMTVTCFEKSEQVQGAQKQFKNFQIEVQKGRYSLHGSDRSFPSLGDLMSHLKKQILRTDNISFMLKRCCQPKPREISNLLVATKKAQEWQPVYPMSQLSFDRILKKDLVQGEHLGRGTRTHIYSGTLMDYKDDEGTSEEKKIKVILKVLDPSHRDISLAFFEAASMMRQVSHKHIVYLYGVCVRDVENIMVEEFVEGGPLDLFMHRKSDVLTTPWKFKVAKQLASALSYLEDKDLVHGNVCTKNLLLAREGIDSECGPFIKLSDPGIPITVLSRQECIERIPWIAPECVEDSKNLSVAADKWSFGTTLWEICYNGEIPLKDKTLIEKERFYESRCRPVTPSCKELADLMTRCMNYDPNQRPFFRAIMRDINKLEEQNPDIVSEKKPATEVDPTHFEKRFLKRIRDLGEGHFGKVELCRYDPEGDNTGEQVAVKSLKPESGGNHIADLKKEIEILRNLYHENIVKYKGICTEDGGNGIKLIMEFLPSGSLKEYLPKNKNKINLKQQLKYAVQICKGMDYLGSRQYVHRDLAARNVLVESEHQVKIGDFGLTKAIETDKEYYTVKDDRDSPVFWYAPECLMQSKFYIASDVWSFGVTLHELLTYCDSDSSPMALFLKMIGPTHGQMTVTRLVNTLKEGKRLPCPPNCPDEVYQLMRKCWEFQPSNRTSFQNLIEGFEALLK
TYK2, sequence (P29597 whole entry, species assumed): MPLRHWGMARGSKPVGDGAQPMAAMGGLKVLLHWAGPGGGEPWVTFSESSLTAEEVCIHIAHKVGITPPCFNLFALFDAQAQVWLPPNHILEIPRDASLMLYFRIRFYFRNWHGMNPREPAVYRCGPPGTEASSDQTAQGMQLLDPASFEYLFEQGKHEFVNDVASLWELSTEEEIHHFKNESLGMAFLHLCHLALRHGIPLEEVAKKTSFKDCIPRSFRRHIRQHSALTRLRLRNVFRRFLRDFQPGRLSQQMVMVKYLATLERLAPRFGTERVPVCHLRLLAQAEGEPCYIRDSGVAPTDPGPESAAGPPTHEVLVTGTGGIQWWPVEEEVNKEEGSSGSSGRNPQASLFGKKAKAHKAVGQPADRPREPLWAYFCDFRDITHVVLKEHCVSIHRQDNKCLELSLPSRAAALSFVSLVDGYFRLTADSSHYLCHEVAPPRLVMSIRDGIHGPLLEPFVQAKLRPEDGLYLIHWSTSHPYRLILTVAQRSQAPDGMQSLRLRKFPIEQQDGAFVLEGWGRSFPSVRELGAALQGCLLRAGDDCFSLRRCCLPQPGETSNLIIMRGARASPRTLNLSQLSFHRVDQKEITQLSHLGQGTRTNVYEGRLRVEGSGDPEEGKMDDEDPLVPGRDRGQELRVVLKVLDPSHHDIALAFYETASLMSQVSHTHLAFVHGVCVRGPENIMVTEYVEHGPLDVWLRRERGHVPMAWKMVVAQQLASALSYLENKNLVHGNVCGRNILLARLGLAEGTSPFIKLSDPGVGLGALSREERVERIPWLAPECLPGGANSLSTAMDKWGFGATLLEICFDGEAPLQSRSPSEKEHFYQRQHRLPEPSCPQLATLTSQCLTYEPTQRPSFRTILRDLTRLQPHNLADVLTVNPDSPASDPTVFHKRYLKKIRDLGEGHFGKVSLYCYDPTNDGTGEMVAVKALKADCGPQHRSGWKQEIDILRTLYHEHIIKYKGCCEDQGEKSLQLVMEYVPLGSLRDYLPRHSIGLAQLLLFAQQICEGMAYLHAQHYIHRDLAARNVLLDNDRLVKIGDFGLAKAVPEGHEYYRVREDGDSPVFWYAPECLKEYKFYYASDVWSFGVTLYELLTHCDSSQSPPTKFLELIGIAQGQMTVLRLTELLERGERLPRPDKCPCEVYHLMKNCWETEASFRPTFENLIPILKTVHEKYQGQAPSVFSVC

On to `CCc1cc(O)c(F)cc1-c1cc2[nH]nc(C(=O)NC)c2c(NCc2cc(O)ccc2N(C)S(C)(=O)=O)n1` [Example 31, 6-(2-Ethyl-5-fluoro-4-hydroxyphenyl)-4-({5-hydroxy-2-[methyl(methylsulfonyl)amino]benzyl}amino)-N-methyl-1H-pyrazolo[4,3-c]pyridine-3-carboxamide], for which the IC50 at TYK2 was determined as 4.6 nM; against JAK1, 1.3 nM; against JAK2, 7 nM; at JAK3, 33 nM.

As to `CCc1cc(O)c(F)cc1-c1cc2[nH]ncc2c(NCc2ccccc2N(CC)S(=O)(=O)CC)n1` [Example 136, N-ethyl-N-[2-({[6-(2-ethyl-5-fluoro-4-hydroxyphenyl)-1H-pyrazolo[4,3-c]pyridin-4-yl]amino}methyl)phenyl]ethanesulfonamide hydrochloride], the IC50 against TYK2 is 8.7 nM; at JAK1, 0.8 nM; on JAK2 it was 4.3 nM; at JAK3 it was 22.4 nM.

`CCN(c1ccccc1CNc1nc(-c2cc(F)c(O)cc2CC(F)(F)F)nc2[nH]nc(C(=O)NC)c12)S(C)(=O)=O` [Example 103, 4-((2-(N-ethylmethylsulfonamido)-benzyl)amino)-6-(5-fluoro-4-hydroxy-2-(2,2,2-trifluoroethyl)phenyl)-N-methyl-1H-pyrazolo[3,4-d]pyrimidine-3-carboxamide]: the IC50 against TYK2 turned out to be 349 nM; against JAK1, 5 nM; on JAK2, 31 nM; at JAK3, 92.6 nM.

`CCS(=O)(=O)N(C)c1ccccc1CNc1nc(-c2cc(F)c(O)cc2CC(F)(F)F)cc2[nH]nc(C(N)=O)c12` [Example 85, 6-(5-fluoro-4-hydroxy-2-(2,2,2-trifluoroethyl)phenyl)-4-((2-(N-methylethyl-sulfonamido)benzyl)-amino)-1H-pyrazolo[4,3-c]pyridine-3-carboxamide]: the IC50 at TYK2 was 81.4 nM; against JAK1, 7.8 nM; against JAK2, 47.2 nM; at JAK3 it was 156 nM.

For the molecule `CN(c1ccccc1CNc1nc(-c2cc(F)c(O)cc2CC(F)(F)F)cc2[nH]nc(-n3cccn3)c12)S(C)(=O)=O` [Example 163, N-{2-[({6-[5-Fluoro-4-hydroxy-2-(2,2,2-trifluoroethyl)phenyl]-3-(1H-pyrazol-1-yl)-1H-pyrazolo[4,3-c]pyridin-4-yl}amino)methyl]phenyl}-N-methylmethanesulfonamide], the IC50 against TYK2 is 356 nM; on JAK1, 32.9 nM; against JAK2, 150 nM; against JAK3, 491 nM.

In the case of `CCc1cc(O)c(F)cc1-c1cc2[nH]ncc2c(NCc2cc(C)ccc2N(C)S(C)(=O)=O)n1` [Example 132, N-[2-({[6-(2-ethyl-5-fluoro-4-hydroxyphenyl)-1H-pyrazolo[4,3-c]pyridin-4-yl]amino}methyl)-4-methylphenyl]-N-methylmethanesulfonamide hydrochloride], the IC50 against TYK2 is 1290 nM; against JAK1, 19 nM; against JAK2 it was 31.4 nM; on JAK3, 18.4 nM.

For the molecule `CC(C)CNc1nc(-c2cc(F)c(O)cc2CC(F)(F)F)nc2[nH]ncc12` [Example 153, 2-fluoro-4-{4-[(2-methyl-propyl)amino]-1H-pyrazolo[3,4-d]pyrimidin-6-yl}-5-(2,2,2-trifluoroethyl)phenol], the IC50 stood at 7460 nM at TYK2, 74 nM against JAK1, 241 nM at JAK2 and 207 nM at JAK3.

For `CN(c1ccccc1CNc1nc(-c2cc(F)c(O)cc2C2CC2)cc2[nH]nc(C(N)=O)c12)S(C)(=O)=O` [Example 47, 6-(2-cyclopropyl-5-fluoro-4-hydroxyphenyl)-4-({2-[methyl(methylsulfonyl)amino]benzyl}amino)-1H-pyrazolo[4,3-c]pyridine-3-carboxamide], the IC50 at TYK2 stood at 320 nM; on JAK1, 10.6 nM; at JAK2 it was 28.4 nM; against JAK3, 54.3 nM.

In the case of `CCc1cc(O)c(F)cc1-c1cc2[nH]nc(C(=O)NC)c2c(NCc2cc(Cl)ccc2N(C)S(C)(=O)=O)n1` [Example 6, 4-({5-chloro-2-[methyl(methyl-sulfonyl)amino]benzyl}amino)-6-(2-ethyl-5-fluoro-4-hydroxy-phenyl)-N-methyl-1H-pyrazolo[4,3-c]pyridine-3-carboxamide], the IC50 on TYK2 was found to be 15.3 nM; against JAK1, 3.1 nM; against JAK2 it was 15.8 nM; against JAK3 it was 84.9 nM.

Regarding `CN(c1ccccc1CNc1nc(-c2cc(F)c(O)cc2CC(F)(F)F)cc2[nH]ncc12)S(C)(=O)=O` [Example 148, N-{2-[({6-[5-Fluoro-4-hydroxy-2-(2,2,2-trifluoroethyl)phenyl]-1H-pyrazolo[4,3-c]pyridin-4-yl}amino)methyl]phenyl}-N-methylmethanesulfonamide], the IC50 against TYK2 turned out to be 146 nM; at JAK1 it was 1.8 nM; against JAK2 it was 6.3 nM; at JAK3 it was 22.8 nM.

Regarding `CCc1cc(O)ccc1-c1cc2[nH]ncc2c(N2CCc3c(cccc3NS(C)(=O)=O)C2)n1` [Example 123, N-{2-[6-(2-ethyl-4-hydroxyphenyl)-1H-pyrazolo[4,3-c]pyridin-4-yl]-1,2,3,4-tetrahydroisoquinolin-5-yl}methanesulfonamide formate], the IC50 against TYK2 came out at 82.1 nM; at JAK1 it was 3.3 nM; against JAK2, 4.5 nM; at JAK3, 9.5 nM.

Turning to `CN(c1ccc(Cl)cc1CNc1nc(-c2cc(F)c(O)cc2CC(F)(F)F)cc2[nH]nc(C(N)=O)c12)S(C)(=O)=O` [Example 89, 4-({5-chloro-2-[methyl(methylsulfonyl)amino]benzyl}amino)-6-[5-fluoro-4-hydroxy-2-(2,2,2-trifluoroethyl)phenyl]-1H-pyrazolo[4,3-c]pyridine-3-carboxamide], the IC50 at TYK2 is 917 nM; at JAK1 it was 14.6 nM; on JAK2 it was 57.1 nM; at JAK3 it was 212 nM.

For `CCc1cc(O)c(F)cc1-c1cc2[nH]nc(-c3nc(C)c[nH]3)c2c(NCc2ccccc2N(C)S(C)(=O)=O)n1` [Example 159, N-[2-({[6-(2-Ethyl-5-fluoro-4-hydroxyphenyl)-3-(4-methyl-1H-imidazol-2-yl)-1H-pyrazolo[4,3-c]pyridin-4-yl]amino}methyl)phenyl]-N-methylmethanesulfonamide], the IC50 came to 16.1 nM at TYK2, 4.3 nM on JAK1, 18.5 nM on JAK2 and 83.3 nM against JAK3.

As to `CCN(c1ccccc1CNc1nc(-c2cc(F)c(O)cc2CC(F)(F)F)cc2[nH]nc(C(N)=O)c12)S(C)(=O)=O` [Example 90, 4-({2-[ethyl(methylsulfonyl)amino]benzyl}amino)-6-[5-fluoro-4-hydroxy-2-(2,2,2-trifluoroethyl)-phenyl]-1H-pyrazolo[4,3-c]pyridine-3-carboxamide], the IC50 at TYK2 turned out to be 23.2 nM; on JAK1 it was 2.7 nM; against JAK2, 18.1 nM; against JAK3 it was 77.1 nM.

`CCc1cc(O)c(F)cc1-c1cc2[nH]ncc2c(N(C)Cc2ccccc2N(C)S(C)(=O)=O)n1` [Example 146, N-[2-({[6-(2-Ethyl-5-fluoro-4-hydroxyphenyl)-1H-pyrazolo[4,3-c]pyridin-4-yl](methyl)amino}methyl)phenyl]-N-methylmethanesulfonamide hydrochloride]: the IC50 is 49.9 nM on TYK2, 0.9 nM on JAK1, 5.1 nM against JAK2 and 19.1 nM against JAK3.

For the molecule `CCCN(c1ccccc1CNc1nc(-c2cc(F)c(O)cc2CC)cc2[nH]ncc12)S(C)(=O)=O` [Example 137, N-[2-({[6-(2-Ethyl-5-fluoro-4-hydroxyphenyl)-1H-pyrazolo[4,3-c]pyridin-4-yl]amino}methyl)phenyl]-N-propylmethanesulfonamide], the IC50 is 45.4 nM on TYK2, less than 0.1 nM on JAK1, 0.3 nM against JAK2 and 3.3 nM at JAK3.

In the case of `CNC(=O)c1n[nH]c2cc(-c3cc(F)c(O)cc3CC(F)(F)F)nc(NCc3nccnc3N(C)S(C)(=O)=O)c12` [Example 51, 6-[5-fluoro-4-hydroxy-2-(2,2,2-trifluoroethyl)phenyl]-N-methyl-4-[({3-[methyl(methylsulfonyl)amino]pyrazin-2-yl}methyl)amino]-1H-pyrazolo[4,3-c]pyridine-3-carboxamide], the IC50 against TYK2 amounted to 226 nM; against JAK1 it was 3.5 nM; at JAK2, 20.8 nM; against JAK3 it was 66.9 nM.

Take `CN(c1ccccc1CNc1nc(-c2cc(F)c(O)cc2CC(F)(F)F)cc2[nH]nc(C(N)=O)c12)S(=O)(=O)c1cccnc1` [Example 61, 6-[5-fluoro-4-hydroxy-2-(2,2,2-trifluoroethyl)phenyl]-4-({2-[methyl(pyridin-3-ylsulfonyl)amino]benzyl}amino)-1H-pyrazolo[4,3-c]pyridine-3-carboxamide]: the IC50 against TYK2 turned out to be 52.3 nM; on JAK1, 7.3 nM; against JAK2, 30.2 nM; against JAK3 it was 110 nM.

Turning to `CNC(=O)c1n[nH]c2cc(-c3cc(F)c(O)cc3CC(F)(F)F)nc(NCC3CCCC3)c12` [Example 17, 4-[(cyclopentylmethyl)-amino]-6-[5-fluoro-4-hydroxy-2-(2,2,2-trifluoro-ethyl)phenyl]-N-methyl-1H-pyrazolo[4,3-c]pyridine-3-carboxamide], the IC50 against TYK2 came out at 142 nM; at JAK1 it was 18.5 nM; at JAK2, 52.9 nM; against JAK3 it was 256 nM.

With `CCc1cc(O)c(F)cc1-c1cc2[nH]ncc2c(NCc2cc(Cl)ccc2N(C)S(C)(=O)=O)n1` [Example 133, N-[4-chloro-2-({[6-(2-ethyl-5-fluoro-4-hydroxyphenyl)-1H-pyrazolo[4,3-c]pyridin-4-yl]amino}methyl)phenyl]-N-methylmethanesulfonamide hydrochloride], the IC50 against TYK2 came out at 249 nM; against JAK1, 1.2 nM; against JAK2, 5.9 nM; against JAK3, 30.5 nM.
